Where two headings read alike, the source gives them in different places.
Legend:
AURKC = target: T1, AURKC (Homo sapiens, UniProt Q9UQB9); experiment: KINOMEscan; type: binding; conditions: read-out: Percent Control
T1 construct: purchased Eurofins DiscoverX KINOMEscan (scanMAX 468)

CAMK1G = target: T2, CAMK1G (Homo sapiens, UniProt Q96NX5); experiment: KINOMEscan; type: binding; conditions: read-out: Percent Control
T2 construct: purchased Eurofins DiscoverX KINOMEscan (scanMAX 468)

CAMK2D = target: T3, CAMK2D (Homo sapiens, UniProt Q13557); experiment: KINOMEscan; type: binding; conditions: read-out: Percent Control
T3 construct: purchased Eurofins DiscoverX KINOMEscan (scanMAX 468)

CDC2L5 = target: T4, CDC2L5 (Homo sapiens, UniProt Q14004); experiment: KINOMEscan; type: binding; conditions: read-out: Percent Control
T4 construct: purchased Eurofins DiscoverX KINOMEscan (scanMAX 468)

CDK11 = target: T5, CDK11 (Homo sapiens, UniProt Q9BWU1); experiment: KINOMEscan; type: binding; conditions: read-out: Percent Control
T5 construct: purchased Eurofins DiscoverX KINOMEscan (scanMAX 468)

CDK4-cyclinD1 = target: T6, CDK4-cyclinD1 (Homo sapiens, UniProt P11802); experiment: KINOMEscan; type: binding; conditions: read-out: Percent Control
T6 construct: purchased Eurofins DiscoverX KINOMEscan (scanMAX 468)

EGFR(G719S) = target: T7, EGFR(G719S) (Homo sapiens, UniProt P00533, G719S); experiment: KINOMEscan; type: binding; conditions: read-out: Percent Control
T7 construct: purchased Eurofins DiscoverX KINOMEscan (scanMAX 468)

EPHA6 = target: T8, EPHA6 (Homo sapiens, UniProt Q9UF33); experiment: KINOMEscan; type: binding; conditions: read-out: Percent Control
T8 construct: purchased Eurofins DiscoverX KINOMEscan (scanMAX 468)

EPHB1 = target: T9, EPHB1 (Homo sapiens, UniProt P54762); experiment: KINOMEscan; type: binding; conditions: read-out: Percent Control
T9 construct: purchased Eurofins DiscoverX KINOMEscan (scanMAX 468)

GRK1 = target: T10, GRK1 (Homo sapiens, UniProt Q15835); experiment: KINOMEscan; type: binding; conditions: read-out: Percent Control
T10 construct: purchased Eurofins DiscoverX KINOMEscan (scanMAX 468)

KIT(L576P) = target: T11, KIT(L576P) (Homo sapiens, UniProt P10721, L576P); experiment: KINOMEscan; type: binding; conditions: read-out: Percent Control
T11 construct: purchased Eurofins DiscoverX KINOMEscan (scanMAX 468)

LATS2 = target: T12, LATS2 (Homo sapiens, UniProt Q9NRM7); experiment: KINOMEscan; type: binding; conditions: read-out: Percent Control
T12 construct: purchased Eurofins DiscoverX KINOMEscan (scanMAX 468)

LIMK2 = target: T13, LIMK2 (Homo sapiens, UniProt P53671); experiment: KINOMEscan; type: binding; conditions: read-out: Percent Control
T13 construct: purchased Eurofins DiscoverX KINOMEscan (scanMAX 468)

MEK3 = target: T14, MEK3 (Homo sapiens, UniProt P46734); experiment: KINOMEscan; type: binding; conditions: read-out: Percent Control
T14 construct: purchased Eurofins DiscoverX KINOMEscan (scanMAX 468)

MEK4 = target: T15, MEK4 (Homo sapiens, UniProt P45985); experiment: KINOMEscan; type: binding; conditions: read-out: Percent Control
T15 construct: purchased Eurofins DiscoverX KINOMEscan (scanMAX 468)

MELK = target: T16, MELK (Homo sapiens, UniProt Q14680); experiment: KINOMEscan; type: binding; conditions: read-out: Percent Control
T16 construct: purchased Eurofins DiscoverX KINOMEscan (scanMAX 468)

NDR2 = target: T17, NDR2 (Homo sapiens, UniProt Q9Y2H1); experiment: KINOMEscan; type: binding; conditions: read-out: Percent Control
T17 construct: purchased Eurofins DiscoverX KINOMEscan (scanMAX 468)

NLK = target: T18, NLK (Homo sapiens, UniProt Q9UBE8); experiment: KINOMEscan; type: binding; conditions: read-out: Percent Control
T18 construct: purchased Eurofins DiscoverX KINOMEscan (scanMAX 468)

p38-alpha = target: T19, p38-alpha (Homo sapiens, UniProt Q16539); experiment: KINOMEscan; type: binding; conditions: read-out: Percent Control
T19 construct: purchased Eurofins DiscoverX KINOMEscan (scanMAX 468)

PIK3CA = target: T20, PIK3CA (Homo sapiens, UniProt P42336); experiment: KINOMEscan; type: binding; conditions: read-out: Percent Control
T20 construct: purchased Eurofins DiscoverX KINOMEscan (scanMAX 468)

PIK3CA(H1047Y) = target: T21, PIK3CA(H1047Y) (Homo sapiens, UniProt P42336, H1047Y); experiment: KINOMEscan; type: binding; conditions: read-out: Percent Control
T21 construct: purchased Eurofins DiscoverX KINOMEscan (scanMAX 468)

PLK2 = target: T22, PLK2 (Homo sapiens, UniProt Q9NYY3); experiment: KINOMEscan; type: binding; conditions: read-out: Percent Control
T22 construct: purchased Eurofins DiscoverX KINOMEscan (scanMAX 468)

PRKG2 = target: T23, PRKG2 (Homo sapiens, UniProt Q13237); experiment: KINOMEscan; type: binding; conditions: read-out: Percent Control
T23 construct: purchased Eurofins DiscoverX KINOMEscan (scanMAX 468)

QSK = target: T24, QSK (Homo sapiens, UniProt Q9Y2K2); experiment: KINOMEscan; type: binding; conditions: read-out: Percent Control
T24 construct: purchased Eurofins DiscoverX KINOMEscan (scanMAX 468)

RET(M918T) = target: T25, RET(M918T) (Homo sapiens, UniProt P07949, M918T); experiment: KINOMEscan; type: binding; conditions: read-out: Percent Control
T25 construct: purchased Eurofins DiscoverX KINOMEscan (scanMAX 468)

SRPK1 = target: T26, SRPK1 (Homo sapiens, UniProt Q96SB4); experiment: KINOMEscan; type: binding; conditions: read-out: Percent Control
T26 construct: purchased Eurofins DiscoverX KINOMEscan (scanMAX 468)

TAK1 = target: T27, TAK1 (Homo sapiens, UniProt O43318); experiment: KINOMEscan; type: binding; conditions: read-out: Percent Control
T27 construct: purchased Eurofins DiscoverX KINOMEscan (scanMAX 468)

[1] = target: T28, TYK2(JH1domain-catalytic) (Homo sapiens, UniProt P29597); experiment: KINOMEscan; type: binding; conditions: read-out: Percent Control
T28 construct: TYK2(JH1domain-catalytic); purchased Eurofins DiscoverX KINOMEscan (scanMAX 468)

[2] = target: T29, TYK2(JH2domain-pseudokinase) (Homo sapiens, UniProt P29597); experiment: KINOMEscan; type: binding; conditions: read-out: Percent Control
T29 construct: TYK2(JH2domain-pseudokinase); purchased Eurofins DiscoverX KINOMEscan (scanMAX 468)

VEGFR2 = target: T30, VEGFR2 (Homo sapiens, UniProt P35968); experiment: KINOMEscan; type: binding; conditions: read-out: Percent Control
T30 construct: purchased Eurofins DiscoverX KINOMEscan (scanMAX 468)

Hs_HASPIN = target: T31, Hs_HASPIN (Homo sapiens, UniProt Q8TF76); design: method as in ref 13 (a number printed in a supplementary file, which may have a reference list of its own: not looked up in the article's list); conditions: DB18, cited from earlier work
T31 construct: host or cells: bacteria
T31 sequence (Q8TF76 1-798): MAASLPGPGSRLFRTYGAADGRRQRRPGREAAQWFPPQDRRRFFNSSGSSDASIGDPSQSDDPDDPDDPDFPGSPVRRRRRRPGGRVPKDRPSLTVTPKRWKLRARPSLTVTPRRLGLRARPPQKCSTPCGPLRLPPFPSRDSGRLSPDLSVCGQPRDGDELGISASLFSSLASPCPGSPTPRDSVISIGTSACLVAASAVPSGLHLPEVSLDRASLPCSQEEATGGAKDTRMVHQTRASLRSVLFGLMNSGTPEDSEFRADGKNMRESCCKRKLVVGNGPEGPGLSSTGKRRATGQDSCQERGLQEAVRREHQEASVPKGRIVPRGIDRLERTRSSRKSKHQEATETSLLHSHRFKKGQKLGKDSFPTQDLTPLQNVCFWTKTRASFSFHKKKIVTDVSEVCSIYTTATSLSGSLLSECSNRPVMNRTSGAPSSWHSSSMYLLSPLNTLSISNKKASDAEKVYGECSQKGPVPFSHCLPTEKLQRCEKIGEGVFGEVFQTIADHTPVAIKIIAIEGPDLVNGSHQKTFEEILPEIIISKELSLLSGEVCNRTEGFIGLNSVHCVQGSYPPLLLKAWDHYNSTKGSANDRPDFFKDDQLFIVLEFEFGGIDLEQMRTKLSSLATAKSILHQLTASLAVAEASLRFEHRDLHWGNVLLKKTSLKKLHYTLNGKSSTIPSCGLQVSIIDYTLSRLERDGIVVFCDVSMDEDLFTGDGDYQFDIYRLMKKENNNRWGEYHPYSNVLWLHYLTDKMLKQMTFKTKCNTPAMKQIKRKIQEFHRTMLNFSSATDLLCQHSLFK

T5 sequence (Q9BWU1 whole entry): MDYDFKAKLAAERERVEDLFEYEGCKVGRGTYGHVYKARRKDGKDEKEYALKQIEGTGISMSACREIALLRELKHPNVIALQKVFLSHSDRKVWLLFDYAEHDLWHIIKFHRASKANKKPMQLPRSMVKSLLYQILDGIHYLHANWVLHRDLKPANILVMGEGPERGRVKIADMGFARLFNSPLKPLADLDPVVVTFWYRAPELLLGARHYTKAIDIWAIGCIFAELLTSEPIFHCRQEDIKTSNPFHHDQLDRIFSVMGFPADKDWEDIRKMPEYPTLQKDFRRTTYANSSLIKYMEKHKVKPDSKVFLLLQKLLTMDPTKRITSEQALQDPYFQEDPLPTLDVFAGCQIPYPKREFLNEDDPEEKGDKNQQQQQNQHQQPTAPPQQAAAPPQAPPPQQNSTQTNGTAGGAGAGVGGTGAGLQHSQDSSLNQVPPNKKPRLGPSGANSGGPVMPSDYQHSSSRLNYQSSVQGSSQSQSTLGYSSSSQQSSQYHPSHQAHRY
T19 sequence (Q16539 whole entry): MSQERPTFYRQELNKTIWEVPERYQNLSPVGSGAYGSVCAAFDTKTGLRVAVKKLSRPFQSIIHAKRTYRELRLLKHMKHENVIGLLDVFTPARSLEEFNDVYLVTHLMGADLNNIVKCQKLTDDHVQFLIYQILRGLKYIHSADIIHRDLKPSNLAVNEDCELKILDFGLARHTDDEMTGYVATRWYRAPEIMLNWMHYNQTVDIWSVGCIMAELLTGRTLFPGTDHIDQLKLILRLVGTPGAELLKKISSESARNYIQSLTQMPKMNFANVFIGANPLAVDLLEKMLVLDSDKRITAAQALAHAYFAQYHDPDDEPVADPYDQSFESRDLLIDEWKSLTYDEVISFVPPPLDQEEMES
T3 sequence (Q13557 whole entry): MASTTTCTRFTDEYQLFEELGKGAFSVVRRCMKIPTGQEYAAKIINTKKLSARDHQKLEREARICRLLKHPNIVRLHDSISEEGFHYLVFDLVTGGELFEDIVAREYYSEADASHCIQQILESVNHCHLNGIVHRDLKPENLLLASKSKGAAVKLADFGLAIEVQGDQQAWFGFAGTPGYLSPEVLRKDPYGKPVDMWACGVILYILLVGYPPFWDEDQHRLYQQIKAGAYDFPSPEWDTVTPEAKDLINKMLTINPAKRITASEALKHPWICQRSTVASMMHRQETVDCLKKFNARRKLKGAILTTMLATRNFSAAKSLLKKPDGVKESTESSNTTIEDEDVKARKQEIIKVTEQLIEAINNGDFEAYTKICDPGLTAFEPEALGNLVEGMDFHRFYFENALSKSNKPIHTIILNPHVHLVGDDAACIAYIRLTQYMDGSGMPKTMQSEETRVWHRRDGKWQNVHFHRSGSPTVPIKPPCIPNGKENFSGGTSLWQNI
T4 sequence (Q14004 whole entry): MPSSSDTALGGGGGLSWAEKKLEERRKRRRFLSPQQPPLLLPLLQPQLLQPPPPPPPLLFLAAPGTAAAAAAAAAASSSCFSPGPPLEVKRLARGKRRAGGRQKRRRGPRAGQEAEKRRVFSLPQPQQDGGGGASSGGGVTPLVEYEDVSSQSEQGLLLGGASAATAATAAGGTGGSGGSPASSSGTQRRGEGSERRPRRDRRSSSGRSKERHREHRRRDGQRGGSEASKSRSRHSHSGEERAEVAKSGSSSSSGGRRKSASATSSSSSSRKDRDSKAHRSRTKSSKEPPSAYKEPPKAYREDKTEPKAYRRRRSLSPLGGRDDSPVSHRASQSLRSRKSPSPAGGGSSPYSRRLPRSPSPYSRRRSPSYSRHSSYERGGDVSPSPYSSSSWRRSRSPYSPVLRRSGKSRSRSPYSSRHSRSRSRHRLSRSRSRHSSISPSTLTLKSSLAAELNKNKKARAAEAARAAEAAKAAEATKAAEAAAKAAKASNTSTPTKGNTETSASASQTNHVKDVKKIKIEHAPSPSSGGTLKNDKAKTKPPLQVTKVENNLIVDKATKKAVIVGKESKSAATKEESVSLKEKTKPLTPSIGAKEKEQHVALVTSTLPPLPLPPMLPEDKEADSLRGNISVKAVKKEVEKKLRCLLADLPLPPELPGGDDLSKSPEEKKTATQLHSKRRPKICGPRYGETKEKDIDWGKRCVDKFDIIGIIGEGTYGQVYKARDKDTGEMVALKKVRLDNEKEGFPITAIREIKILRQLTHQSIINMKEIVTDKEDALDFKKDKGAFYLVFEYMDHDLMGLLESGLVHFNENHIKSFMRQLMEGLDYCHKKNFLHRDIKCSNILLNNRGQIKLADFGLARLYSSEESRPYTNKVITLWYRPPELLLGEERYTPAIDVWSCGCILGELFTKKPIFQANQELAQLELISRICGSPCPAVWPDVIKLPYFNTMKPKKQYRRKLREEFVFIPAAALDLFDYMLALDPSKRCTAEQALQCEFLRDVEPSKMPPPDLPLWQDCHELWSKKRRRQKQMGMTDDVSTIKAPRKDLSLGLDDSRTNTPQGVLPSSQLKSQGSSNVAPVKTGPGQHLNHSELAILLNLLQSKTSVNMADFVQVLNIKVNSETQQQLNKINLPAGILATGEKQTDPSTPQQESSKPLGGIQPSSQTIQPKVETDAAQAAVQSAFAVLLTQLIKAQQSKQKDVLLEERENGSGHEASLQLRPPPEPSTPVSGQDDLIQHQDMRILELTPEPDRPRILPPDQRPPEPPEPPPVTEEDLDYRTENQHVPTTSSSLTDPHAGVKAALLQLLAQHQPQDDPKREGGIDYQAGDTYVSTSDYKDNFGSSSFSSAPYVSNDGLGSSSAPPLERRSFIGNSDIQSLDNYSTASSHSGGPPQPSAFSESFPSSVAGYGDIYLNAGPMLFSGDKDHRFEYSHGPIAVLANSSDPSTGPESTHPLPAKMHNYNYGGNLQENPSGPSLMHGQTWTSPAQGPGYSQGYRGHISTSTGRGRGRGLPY
T11 sequence (P10721 26-976 L576P): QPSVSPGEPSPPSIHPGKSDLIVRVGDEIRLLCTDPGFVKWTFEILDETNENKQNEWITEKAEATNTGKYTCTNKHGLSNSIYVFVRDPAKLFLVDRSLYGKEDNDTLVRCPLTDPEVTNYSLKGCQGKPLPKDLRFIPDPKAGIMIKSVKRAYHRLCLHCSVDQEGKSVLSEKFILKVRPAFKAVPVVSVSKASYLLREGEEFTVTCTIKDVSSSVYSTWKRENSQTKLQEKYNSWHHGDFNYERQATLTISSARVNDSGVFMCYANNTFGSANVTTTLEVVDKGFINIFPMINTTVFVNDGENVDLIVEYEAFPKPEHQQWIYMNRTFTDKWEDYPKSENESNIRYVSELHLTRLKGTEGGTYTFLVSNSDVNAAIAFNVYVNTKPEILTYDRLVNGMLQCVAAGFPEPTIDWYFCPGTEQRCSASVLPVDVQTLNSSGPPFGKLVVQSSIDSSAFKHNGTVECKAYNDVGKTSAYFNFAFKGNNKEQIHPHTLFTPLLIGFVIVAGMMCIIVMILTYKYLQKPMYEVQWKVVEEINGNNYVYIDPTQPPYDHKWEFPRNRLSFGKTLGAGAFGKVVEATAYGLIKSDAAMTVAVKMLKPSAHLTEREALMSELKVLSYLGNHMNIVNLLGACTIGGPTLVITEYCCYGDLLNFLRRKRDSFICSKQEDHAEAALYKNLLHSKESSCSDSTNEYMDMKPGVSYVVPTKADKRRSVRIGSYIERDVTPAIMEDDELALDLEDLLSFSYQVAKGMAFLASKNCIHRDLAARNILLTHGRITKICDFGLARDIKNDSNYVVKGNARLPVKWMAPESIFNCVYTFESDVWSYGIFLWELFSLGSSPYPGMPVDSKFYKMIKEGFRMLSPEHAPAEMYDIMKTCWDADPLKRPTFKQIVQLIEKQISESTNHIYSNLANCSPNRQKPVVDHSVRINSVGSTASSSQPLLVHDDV
T1 sequence (Q9UQB9 whole entry): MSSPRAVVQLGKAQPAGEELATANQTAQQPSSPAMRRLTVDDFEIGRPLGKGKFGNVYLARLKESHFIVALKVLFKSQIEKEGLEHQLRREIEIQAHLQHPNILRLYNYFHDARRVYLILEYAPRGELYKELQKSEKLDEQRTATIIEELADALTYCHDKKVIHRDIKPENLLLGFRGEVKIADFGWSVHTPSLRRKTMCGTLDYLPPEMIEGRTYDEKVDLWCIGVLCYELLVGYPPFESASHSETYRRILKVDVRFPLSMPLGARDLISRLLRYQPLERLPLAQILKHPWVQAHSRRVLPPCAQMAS
T29 sequence (P29597 556-888 limits assumed): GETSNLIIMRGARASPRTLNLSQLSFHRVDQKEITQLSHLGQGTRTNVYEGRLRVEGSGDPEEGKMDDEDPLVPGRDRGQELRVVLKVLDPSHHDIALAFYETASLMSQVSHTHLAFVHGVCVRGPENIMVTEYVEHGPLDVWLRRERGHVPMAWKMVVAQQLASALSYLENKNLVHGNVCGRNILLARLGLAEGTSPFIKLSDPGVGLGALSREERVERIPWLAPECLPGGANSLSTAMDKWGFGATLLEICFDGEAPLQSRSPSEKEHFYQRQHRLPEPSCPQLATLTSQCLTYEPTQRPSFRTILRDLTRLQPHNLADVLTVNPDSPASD
T14 sequence (P46734 whole entry): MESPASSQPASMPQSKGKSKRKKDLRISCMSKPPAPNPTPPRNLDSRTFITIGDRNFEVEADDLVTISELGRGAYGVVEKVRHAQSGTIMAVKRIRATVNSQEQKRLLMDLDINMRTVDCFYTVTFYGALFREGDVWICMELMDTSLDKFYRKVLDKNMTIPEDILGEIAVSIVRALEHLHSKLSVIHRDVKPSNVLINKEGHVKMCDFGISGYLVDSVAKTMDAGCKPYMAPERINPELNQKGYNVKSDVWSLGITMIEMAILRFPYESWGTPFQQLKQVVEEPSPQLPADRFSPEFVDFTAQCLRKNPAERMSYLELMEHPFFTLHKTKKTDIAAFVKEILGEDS

Cc1ccc(-n2cc(COc3cccc4cnc(Nc5cccc(Cl)c5)nc34)nn2)c([N+](=O)[O-])c1 [DB18]
94%: % of residual activity Hs_HASPIN (Hs_HASPIN; 10 µM)
97%: remaining binding at 1 µM (GRK1)
96%: remaining binding at 1 µM (PIK3CA(H1047Y)) | remaining binding at 1 µM (QSK) | % of residual activity Hs_HASPIN (Hs_HASPIN; 1 µM)
93%: remaining binding at 1 µM (CDK4-cyclinD1)
87%: remaining binding at 1 µM (NLK)
95%: remaining binding at 1 µM (NDR2) | remaining binding at 1 µM (PIK3CA)
98%: remaining binding at 1 µM (MEK3)
100%: remaining binding at 1 µM (AURKC) | remaining binding at 1 µM (CAMK1G) | remaining binding at 1 µM (CAMK2D) | remaining binding at 1 µM (CDC2L5) | remaining binding at 1 µM (CDK11) | remaining binding at 1 µM (EGFR(G719S)) | remaining binding at 1 µM (EPHA6) | remaining binding at 1 µM (EPHB1) | remaining binding at 1 µM (KIT(L576P)) | remaining binding at 1 µM (LATS2) | remaining binding at 1 µM (LIMK2) | remaining binding at 1 µM (MEK4) | remaining binding at 1 µM (MELK) | remaining binding at 1 µM (p38-alpha) | remaining binding at 1 µM (PLK2) | remaining binding at 1 µM (PRKG2) | remaining binding at 1 µM (RET(M918T)) | remaining binding at 1 µM (SRPK1) | remaining binding at 1 µM (TAK1) | remaining binding at 1 µM [2]
99%: remaining binding at 1 µM [1] | remaining binding at 1 µM (VEGFR2)

From article PMC9571063 (Molecules, 2022)
